Measured values as given in patent publication US20140275511A1, “PURIFICATION OF […]” (priority 2013, published 2014).

Experiments:
[1] = system: Valley Fever (coccidioidomycosis); conditions: mouse, in vivo; cited from earlier work

C[C@@H]([C@H](N)C(=O)N[C@H](C(=O)O)[C@H]1O[C@@H](n2ccc(=O)[nH]c2=O)[C@H](O)[C@@H]1O)[C@H](O)c1ccc(O)cn1 [Nikkomycin Z]
effectiveness at treating infected animals [1]: quite effective at treating infected animals | stability of broth at pH 4: reasonably stable for at least a week
